Assay results as given in US20090177450A1, “SYSTEMS AND METHODS FOR PREDICTING RESPONSE OF BIOLOGICAL SAMPLES” (Lawrence Berkeley National Laboratory, priority 2007, published 2009).
Read-outs that look alike come from different tables or passages of the source.

Assays:
[1] = system: ERBB2-positive patients with advanced or metastatic breast cancer
Description: Quantitative mRNA levels of the transcripts were measured relative to GAPDH using the branch capture (BC) assay from Panomics using RNA extracted from single 10 micrometer FFPE sections from each tumor. Adjacent H&E stained sections were analyzed for tumor content and samples with <50% tumor were excluded. Transcript levels measured using the Panomics BC assay were normalized to Affymetrix microarray equivalent levels using a mapping function developed using measurements of the transcript levels measured in 22 breast cancer cell lines using both platforms. These functions were then applied to Panomics BC transcript levels for tumor samples to obtain Affymetrix-equivalent transcript levels for each of the EERBB2, GRB7, CRK, ACOT9, CBX5, and DDX5 genes. The weights in the 6-gene predictive model for the tumors were the same as determined from cell lines.
EGF20009 was a randomized, first line phase II trial in ERBB2-positive patients with advanced or metastatic breast cancer in which patients received Lapatinib as monotherapy. 138 patients with ERBB2-amplified tumors were randomly assigned to one of two Lapatinib dose cohorts: 69 patients received Lapatinib 1,500 mg once daily, and the remaining 69 patients received Lapatinib 500 mg twice daily. Samples from patients treated at both levels of Lapatinib were included in the study and patients were stratified into three groups based on tumor ERBB2 mRNA expression levels measured using the Panomics BC assay. Patients with the highest ERBB2 expression levels were assigned to a group designated as sensitive, patients with the lowest ERBB2 expression levels were assigned to a group designated as resistant and the remaining patients were assigned to an intermediate group (n=53). Patients whose tumors assigned to the intermediate group were further stratified into resistant and sensitive classes by using the 6-gene predictor set and a single response predictor CBX5, respectively.

[2] = system: breast cancer cell lines; assay: cells; settings: Homo sapiens
[3] = system: breast cancer cell lines
[4] = system: ERBB2-positive tumors from human cancer patients; assay: Progression free survival in a tumor panel stratified by the 6-gene computational model (Example 7); format: in vivo; settings: sensitive if predicted log(GI50)≦0.4
Description: The computational model described in Example 6 was applied to the mRNA expression levels obtained to predict the Lapatinib sensitivity status of the tumors. […] The progression free survival of those predicted responders (sensitive) were compared to the non-responders (resistant).

## CS(=O)(=O)CCNCc1ccc(-c2ccc3ncnc(Nc4ccc(OCc5cccc(F)c5)c(Cl)c4)c3c2)o1 [Lapatinib]
[1]; intermediate ERBB2 expression group (n=53), 6-gene predictor set
  hazards ratio (HR), predicted sensitive vs predicted resistant patients: 0.383
[1]; intermediate group, CBX5 single predictor
  hazards ratio (HR), predicted sensitive vs predicted resistant patients: 0.25
[1]; intermediate group, patients predicted to be resistant, CBX5 single predictor
  median survival: 61 days
[1]; intermediate group, patients predicted to be sensitive, CBX5 single predictor
  median survival: 176 days
[1]; patients predicted to be resistant, CBX5 single predictor
  response rate: 17%
[1]; patients predicted to be sensitive, CBX5 single predictor
  response rate: 56%
[2]; AU565, read-out: log10(GI50), cell line AU565 (converted), Training sample
  GI50: 0.0234 µM
[2]; BT-474, read-out: log10(GI50), cell line BT474 (converted), Training sample
  GI50: 0.03 µM
[2]; BT-483, read-out: log10(GI50), cell line BT483 (converted), Training sample
  GI50: 1.89 µM
[2]; BT-549, read-out: log10(GI50), cell line BT549 (converted), Training sample
  GI50: 25.1 µM
[2]; CAMA-1, read-out: log10(GI50), cell line CAMA1 (converted), Test sample
  GI50: 32.1 µM
[2]; HBL-100, read-out: log10(GI50), cell line HBL100 (converted), Training sample
  GI50: 6.33 µM
[2]; HCC38, read-out: log10(GI50), cell line HCC38 (converted), Training sample
  GI50: 5 µM
[2]; HCC70, read-out: log10(GI50), cell line HCC70 (converted), Test sample
  GI50: 0.5 µM
[2]; HCC202, read-out: log10(GI50), cell line HCC202 (converted), Test sample
  GI50: 0.015 µM
[2]; HCC1143, read-out: log10(GI50), cell line HCC1143 (converted), Training sample
  GI50: 3.04 µM
[2]; HCC1187, read-out: log10(GI50), cell line HCC1187 (converted), Test sample
  GI50: 7.35 µM
[2]; HCC1428, read-out: log10(GI50), cell line HCC1428 (converted), Test sample
  GI50: 10 µM
[2]; HCC1500, read-out: log10(GI50), cell line HCC1500 (converted), Training sample
  GI50: 1.6 µM
[2]; HCC1569, read-out: log10(GI50), cell line HCC1569 (converted), Training sample
  GI50: 0.1 µM
[2]; HCC1937, read-out: log10(GI50), cell line HCC1937 (converted), Training sample
  GI50: 3 µM
[2]; HCC1954, read-out: log10(GI50), cell line HCC1954 (converted), Training sample
  GI50: 0.3 µM
[2]; Hs-578T, read-out: log10(GI50), cell line HS578T (converted), Training sample
  GI50: 10 µM
[2]; MCF7, read-out: log10(GI50), cell line MCF7 (converted), Training sample
  GI50: 6 µM
[2]; MCF-10A, read-out: log10(GI50), cell line MCF10A (converted), Training sample
  GI50: 3 µM
[2]; MCF-12A, read-out: log10(GI50), cell line MCF12A (converted), Test sample
  GI50: 4 µM
[2]; MDA-MB-157, read-out: log10(GI50), cell line MDAMB157 (converted), Training sample
  GI50: 10 µM
[2]; MDA-MB-231, read-out: log10(GI50), cell line MDAMB231 (converted), Training sample
  GI50: 10 µM
[2]; MDA-MB-361, read-out: log10(GI50), cell line MDAMB361 (converted), Training sample
  GI50: 1.2 µM
[2]; MDA-MB-435, read-out: log10(GI50), cell line MDAMB435 (converted), Training sample
  GI50: 10 µM
[2]; MDA-MB-436, read-out: log10(GI50), cell line MDAMB436 (converted), Training sample
  GI50: 30 µM
[2]; MDA-MB-453, read-out: log10(GI50), cell line MDAMB453 (converted), Training sample
  GI50: 3 µM
[2]; MDA-MB-468, read-out: log10(GI50), cell line MDAMB468 (converted), Training sample
  GI50: 10 µM
[2]; SK-BR-3, read-out: log10(GI50), cell line SKBR3 (converted), Test sample
  GI50: 0.03 µM
[2]; SUM52PE, read-out: log10(GI50), cell line SUM52PE (converted), Training sample
  GI50: 15 µM
[2]; SUM149PT, read-out: log10(GI50), cell line SUM149PT (converted), Training sample
  GI50: 0.3 µM
[2]; SUM185PE, read-out: log10(GI50), cell line SUM185PE (converted), Training sample
  GI50: 12 µM
[2]; SUM-159-PT, read-out: log10(GI50), cell line SUM159PT (converted), Training sample
  GI50: 3 µM
[2]; T47D, read-out: log10(GI50), cell line T47D (converted), Test sample
  GI50: 25 µM
[2]; UACC-812, read-out: log10(GI50), cell line UACC812 (converted), Training sample
  GI50: 0.015 µM
[2]; ZR-75-1, read-out: log10(GI50), cell line ZR75.1 (converted), Test sample
  GI50: 20 µM
[2]; ZR-75B, read-out: log10(GI50), cell line ZR75B (converted), Test sample
  GI50: 8 µM
[2]; read-out: average log(GI50), training set of 30 breast cancer cell-lines (converted)
  GI50: 2.51 µM
[2]; read-out: log10(GI50), cell line 600MPE (converted), Training sample
  GI50: 8 µM
[2]; read-out: log10(GI50), cell line HCC2185 (converted), Training sample
  GI50: 8 µM
[2]; read-out: log10(GI50), cell line HCC3153 (converted), Training sample
  GI50: 10 µM
[2]; read-out: log10(GI50), cell line LY2 (converted), Training sample
  GI50: 8 µM
[3]; across 40 breast cancer cell lines
  dynamic range of the GI50 response data: > 3 logs
[3]; cell line AU565 found sensitive to Lapatinib
  Sensitivity: Yes
[3]; cell line BT474 found sensitive to Lapatinib
  Sensitivity: Yes
[3]; cell line HCC202 found sensitive to Lapatinib
  Sensitivity: Yes
[3]; cell line HCC1569 found sensitive to Lapatinib
  Sensitivity: Yes
[3]; cell line HCC1954 found sensitive to Lapatinib
  Sensitivity: Yes
[3]; cell line SKBR3 found sensitive to Lapatinib
  Sensitivity: Yes
[3]; cell line SUM149PT found sensitive to Lapatinib
  Sensitivity: Yes
[3]; cell line UACC812 found sensitive to Lapatinib
  Sensitivity: Yes
[4]
  median survival of predicted responders compared to non-responders: longer
